Columns and labels:
Format in all cases: biochemical
MCL-1 = experiment: In vitro transcription-translation (IVTT) assay, MCL-1 reporter; details: HeLa S3 lysate, sfGFP/mCherry ratio, 2 hrs at 30° C.
From the text: (§1) All reporter constructs have been cloned into the pT7CFE1-CHis plasmid (ThermoFisher #88860) using Gibson assembly procedures (NEB #E2611L). The parental pT7CFE1-CHis plasmid contains an EMCV IRES at the 5′UTR for translation initiation, a multiple-cloning site (MCS) for gene insertion, an optional C-terminal His-epitope tag, and polyA sequence in the 3′UTR to regulate mRNA stability. All reporters are designed to be inserted at the MCS to include a red fluorescent protein (mCherry), P2A self-cleaving peptide which releases the preceding mCherry protein product, and a fusion open reading frame containing a 3×FLAG epitope, a peptide sequence of interest (TEST), and green fluorescent protein (sfGFP).
(§2) Construct Plasmid Preparation: All plasmids are isolated from MACH1 cells (ThermoFisher) grown overnight in ampicillin-containing luria broth, and purified using ZymoPure Express Plasmid Midiprep Kit (Zymo Research). Constructs are sequenced verified and diluted to a working concentration of 110 ng/μL.
(§3) HeLa S3 Lysate Preparation: HeLa S3 cell pellets are acquired from Ipracell/Ipratech (Belgium) and shipped as 4 mL frozen cell pellets on dry ice for storage at −80° C. until use. The procedure for lysate preparation is as follows. Prepare 1× Lysis Buffer, cold and stored on ice:
(§4) Each preparation takes 8 cell pellets (4 ml packed volume each, approximately 1.0×10^9 cells per pellet). Thaw cell pellets from −80° C. on ice for 90 mins. Lay pellets horizontally on top of the ice and rotate every 30 mins to ensure even thawing. Once thawed, add 4 mL of cold lysis buffer to each pellet, and using a serological pipet, gently pipet up and down to break up clumps. Incubate resuspended cells in ice for an additional 30 mins (plunged into ice). During 30 min incubation, rinse and RNase-zap (Ambion) glass dounces (use loose pestle “A”), gently dry and place on ice until needed. Prepare RNase-free Eppendorf tubes for spinning and for batch storage. Add batch labels to 1.5-1.7 mL RNase-free microcentrifuge tubes (labeling scheme below). Each batch will have an extra 1.5-1.7 mL RNase-free microcentrifuge tube for 40 μL of lysate, label the top of this tube (labeling scheme below). After 30 min incubation, transfer all 8 mL of cell pellet to dounce. Cell lysis is complete after douncing 100 times. Aliquot cell lysis into 1.5-1.7 mL temporary-microcentrifuge tubes. Place tubes in centrifuge with “fins” out, and spin at 1,200×g for 5 mins. After the first spin use a 1 mL pipet to resuspend each tube and repeat spin. This acts as an additional lysis step, is more vigorous and increases lysate yield. During second spin get liquid N2 and a fresh conical tube on ice. After spin is complete, transfer supernatant (lysate) from microcentrifuge tubes into the 50 mL conical tube and keep on ice. Repeat steps 10-14 for all other cell pellets until completed. Once all cell lysate has been transferred to the 50 mL conical tube pipet to mix so the solution is homogenous. Transfer 1 mL of lysate into batch-labeled microcentrifuge tubes and flash freeze in liquid nitrogen. Be sure to pipet up and down to mix throughout transfer step. Place all tubes in the […] for long-term storage.
(§5) In vitro transcription-translation assay setup: Each assay includes a master mix containing lysate and shared components, a 96-well plate containing compound titrations for testing, a 96-well DNA plate with reporter constructs to be tested, 96-well skirted PCR plates, and 96-well flat-bottom, black, fluorescent assay plates. […]

CCND1 = experiment: In vitro transcription-translation (IVTT) assay, CCND1 reporter; details: HeLa S3 lysate, 2 hrs at 30° C.
From the text: as §1, §2, §3, §4, §5

MYC = experiment: In vitro transcription-translation (IVTT) assay, MYC reporter; details: HeLa S3 lysate, 2 hrs at 30° C.
From the text: as §1, §2, §3, §4, §5

[1] = IVTT assay, MYC reporter, normalized sfGFP/mCherry ratio, half-log dilutions 30 μM-0.1 μM

Compound | IC50 (MCL-1) [µM] | IC50 (CCND1; sfGFP/mCherry ratio) [µM] | IC50 (MYC; sfGFP/mCherry ratio) [µM] | IC50 (CCND1; IVTT) [µM] | IC50 (MYC; [1]) [µM]
COc1ccc(C[C@H]2NC[C@H](O)[C@H]2OC(=O)NCC2CC(F)(F)C2)cc1 [V187862, (2R,3S,4S)-4-hydroxy-2-[(4-methoxyphenyl)methyl]pyrrolidin-3-yl N-[(3,3-difluorocyclobutyl)methyl]carbamate] | < 10 | < 10 | < 10 | – | –
COc1ccc(C[C@H]2NC[C@H](O)[C@H]2OC(=O)NC[C@@H]2CNC[C@@H]2O)cc1 [Cmpd V188116] | 10 to 20 | > 30 | 20 to 30 | – | –
COc1ccc(C[C@H]2NC[C@H](O)[C@H]2OC(=O)NC[C@@H]2CNC[C@H]2O)cc1 [V188093, (2R,3S,4S)-4-hydroxy-2-[(4-methoxyphenyl)methyl]pyrrolidin-3-yl N-{[(3S,4S)-4-hydroxypyrrolidin-3-yl]methyl}carbamate] | – | > 30 | 20 to 30 | – | –
O=C(NCCc1ccncc1)O[C@@H]1[C@@H](O)CN[C@@H]1Cc1ccc(-c2cn(-c3ccc(Cl)cc3)nn2)cc1 [V187950, (2R,3S,4S)-2-({4-[1-(4-chlorophenyl)-1,2,3-triazol-4-yl]phenyl}methyl)-4-hydroxypyrrolidin-3-yl N-[2-(pyridin-4-yl)ethyl]carbamate] | < 10 | < 10 | 10 to 20 | – | –
O=C(NCC[C@@H]1CCOC1)O[C@@H]1[C@@H](O)CN[C@@H]1Cc1ccc(-c2cncs2)cc1 [V193642, (2R,3S,4S)-4-hydroxy-2-(4-(thiazol-5-yl)benzyl)pyrrolidin-3-yl (2-((R)-tetrahydrofuran-3-yl)ethyl)carbamate] | – | – | – | – | < 10
CC(C)CCNC(=O)O[C@@H]1[C@@H](O)CN[C@@H]1Cc1ccc(-c2cncs2)cc1 [V193648, (2R,3S,4S)-4-hydroxy-2-(4-(thiazol-5-yl)benzyl)pyrrolidin-3-yl isopentylcarbamate] | – | – | – | – | < 10
O=C(NCC[C@H]1C[C@H](O)C1)O[C@@H]1[C@@H](O)CN[C@@H]1Cc1ccc(-c2cncs2)cc1 [V193645, (2R,3S,4S)-4-hydroxy-2-(4-(thiazol-5-yl)benzyl)pyrrolidin-3-yl (2-((1r,3R)-3-hydroxycyclobutyl)ethyl)carbamate] | – | – | – | – | < 10
COc1ccc(C[C@H]2NC[C@H](O)[C@H]2OC(=O)NC[C@H]2CNC[C@H]2O)cc1 [V188115, (2R,3S,4S)-4-hydroxy-2-[(4-methoxyphenyl)methyl]pyrrolidin-3-yl N-{[(3R,4S)-4-hydroxypyrrolidin-3-yl]methyl}carbamate] | 10 to 20 | > 30 | > 30 | – | –
O=C(NCCc1ccncc1)O[C@@H]1[C@@H](O)CN[C@@H]1Cc1ccc(-c2cn(Cc3cn[nH]c3)nn2)cc1 [V187948, (2R,3S,4S)-4-hydroxy-2-({4-[1-(1H-pyrazol-4-ylmethyl)-1,2,3-triazol-4-yl]phenyl}methyl)pyrrolidin-3-yl N-[2-(pyridin-4-yl)ethyl]carbamate] | < 10 | < 10 | < 10 | – | –
O=C(NCCc1cnoc1)O[C@@H]1[C@@H](O)CN[C@@H]1Cc1ccc(-c2cncs2)cc1 [V193647, (2R,3S,4S)-4-hydroxy-2-(4-(thiazol-5-yl)benzyl)pyrrolidin-3-yl (2-(isoxazol-4-yl)ethyl)carbamate] | – | – | – | – | < 10
COc1ccc(C[C@H]2NC[C@H](O)[C@H]2OC(=O)NC[C@H]2CNC[C@@H]2O)cc1 [V188114, (2R,3S,4S)-4-hydroxy-2-[(4-methoxyphenyl)methyl]pyrrolidin-3-yl N-{[(3R,4R)-4-hydroxypyrrolidin-3-yl]methyl}carbamate] | 10 to 20 | > 30 | 20 to 30 | – | –
O=C(NCC[C@H]1CCCO1)O[C@@H]1[C@@H](O)CN[C@@H]1Cc1ccc(-c2cncs2)cc1 [V193641, (2R,3S,4S)-4-hydroxy-2-(4-(thiazol-5-yl)benzyl)pyrrolidin-3-yl (2-((R)-tetrahydrofuran-2-yl)ethyl)carbamate] | – | – | – | – | < 10
CNC(=O)O[C@@H]1[C@@H](O)CN[C@@H]1Cc1ccc(-c2cn(-c3cc4ccc(O)cc4oc3=O)nn2)cc1 [V193432, (2R,3S,4S)-4-hydroxy-2-(4-(1-(7-hydroxy-2-oxo-2H-chromen-3-yl)-1H-1,2,3-triazol-4-yl)benzyl)pyrrolidin-3-yl methylcarbamate] | – | – | – | – | < 10
O=C(NCCc1cn[nH]c1)O[C@@H]1[C@@H](O)CN[C@@H]1Cc1ccc(-c2cncs2)cc1 [V193646, (2R,3S,4S)-4-hydroxy-2-(4-(thiazol-5-yl)benzyl)pyrrolidin-3-yl (2-(1H-pyrazol-4-yl)ethyl)carbamate] | – | – | – | – | < 10
O=C(NCC[C@H]1C[C@@H](O)C1)O[C@@H]1[C@@H](O)CN[C@@H]1Cc1ccc(-c2cncs2)cc1 [V193644, (2R,3S,4S)-4-hydroxy-2-(4-(thiazol-5-yl)benzyl)pyrrolidin-3-yl (2-((1s,3S)-3-hydroxycyclobutyl)ethyl)carbamate] | – | – | – | – | < 10
COc1ccc(C[C@H]2NC[C@H](O)[C@H]2OC(=O)NC[C@@H]2CCN(C)C2)cc1 [V188109, (2R,3S,4S)-4-hydroxy-2-[(4-methoxyphenyl)methyl]pyrrolidin-3-yl N-{[(3S)-1-methylpyrrolidin-3-yl]methyl}carbamate] | – | > 30 | 10 to 20 | – | –
O=C(NCC[C@H]1CCOC1)O[C@@H]1[C@@H](O)CN[C@@H]1Cc1ccc(-c2cncs2)cc1 [V193643, (2R,3S,4S)-4-hydroxy-2-(4-(thiazol-5-yl)benzyl)pyrrolidin-3-yl (2-((S)-tetrahydrofuran-3-yl)ethyl)carbamate] | – | – | – | – | < 10

The next lines start with results.

IC50 (MCL-1) [µM] | IC50 (CCND1; sfGFP/mCherry ratio) [µM] | IC50 (MYC; sfGFP/mCherry ratio) [µM] | IC50 (CCND1; IVTT) [µM] | Compound | IC50 (MYC; [1]) [µM]
< 10 | < 10 | < 10 | – | COc1ccc(C[C@H]2NC[C@H](O)[C@H]2OC(=O)NCc2ccc(B(O)O)cc2)cc1 [V188106] | –
– | – | – | > 30 | COc1ccc(C[C@H]2NC[C@H](O)[C@H]2OC(=O)N[C@H](C)c2ccccc2)cc1 [V191970, (2R,3S,4S)-4-hydroxy-2-[(4-methoxyphenyl)methyl]pyrrolidin-3-yl N-[(1R)-1-phenylethyl]carbamate] | > 30
< 10 | 20 to 30 | > 30 | – | COc1ccc(C[C@H]2NC[C@H](O)[C@H]2OC(=O)NCc2cc(C(F)(F)F)[nH]n2)cc1 [Cmpd V187861] | –
> 30 | > 30 | > 30 | – | COc1ccc(C[C@H]2NC[C@H](O)[C@H]2NC(=O)OCc2ccccc2)cc1 [Cmpd V187864] | –
< 10 | < 10 | – | – | [H]/N=C(/N)c1cccc(CNC(=O)O[C@@H]2[C@@H](O)CN[C@@H]2Cc2ccc(OC)cc2)c1 [Cmpd V187989] | –
< 10 | < 10 | < 10 | – | COc1ccc(C[C@H]2NC[C@H](O)[C@H]2OC(=O)NCc2cnc(N)nc2)cc1 [V188037, (2R,3S,4S)-4-hydroxy-2-[(4-methoxyphenyl)methyl]pyrrolidin-3-yl N-[(2-aminopyrimidin-5-yl)methyl]carbamate] | –
– | > 30 | > 30 | – | COc1ccc(C[C@H]2NC[C@H](O)[C@H]2OC(=O)NCCn2cnc3ccccc32)cc1 [V188090, (2R,3S,4S)-4-hydroxy-2-[(4-methoxyphenyl)methyl]pyrrolidin-3-yl N-[2-(1,3-benzodiazol-1-yl)ethyl]carbamate] | –
10 to 20 | 10 to 20 | 10 to 20 | – | [H]/N=C(\N)CNC(=O)O[C@@H]1[C@@H](O)CN[C@@H]1Cc1ccc(OC)cc1 [Cmpd V187993] | –
< 10 | – | 10 to 20 | – | COc1ccc(C[C@H]2NC[C@H](O)[C@H]2OC(=O)NCCC2CNC2)cc1 [V187600, (2R,3S,4S)-4-hydroxy-2-[(4-methoxyphenyl)methyl]pyrrolidin-3-yl N-[2-(azetidin-3-yl)ethyl]carbamate] | –
10 to 20 | – | > 30 | – | COc1ccc(C[C@H]2NC[C@H](O)[C@H]2OC(=O)NCC2CNC2)cc1 [V187599, (2R,3S,4S)-4-hydroxy-2-[(4-methoxyphenyl)methyl]pyrrolidin-3-yl N-(azetidin-3-ylmethyl)carbamate] | –

Source: US20250129021A1, “SMALL MOLECULE PROTEIN SYNTHESIS MODULATORS” (Interdict Bio, Inc., priority 2023, published 2025)
